pEC50: −log10 of the molar value.
Tests used:
[1] = target: T1, human androgen receptor (hAR) (Homo sapiens, UniProt P10275); assay: Functional response (transactivation) test in HALP2 cells (HeLa stably expressing hAR and ARE-luciferase reporter); type: cell-based; details: HALP2 cells; for Emax: HeLa, maximal activation by the compound compared with DHT alone (100%), read-out: % effect relative to DHT (100%); for pEC50: agonism: concentration inducing 50% of the maximum agonistic effect of the tested compound, 24 hours, read-out: EC50
T1 construct: expressed in transfected cells
T1 sequence (P10275 1-920): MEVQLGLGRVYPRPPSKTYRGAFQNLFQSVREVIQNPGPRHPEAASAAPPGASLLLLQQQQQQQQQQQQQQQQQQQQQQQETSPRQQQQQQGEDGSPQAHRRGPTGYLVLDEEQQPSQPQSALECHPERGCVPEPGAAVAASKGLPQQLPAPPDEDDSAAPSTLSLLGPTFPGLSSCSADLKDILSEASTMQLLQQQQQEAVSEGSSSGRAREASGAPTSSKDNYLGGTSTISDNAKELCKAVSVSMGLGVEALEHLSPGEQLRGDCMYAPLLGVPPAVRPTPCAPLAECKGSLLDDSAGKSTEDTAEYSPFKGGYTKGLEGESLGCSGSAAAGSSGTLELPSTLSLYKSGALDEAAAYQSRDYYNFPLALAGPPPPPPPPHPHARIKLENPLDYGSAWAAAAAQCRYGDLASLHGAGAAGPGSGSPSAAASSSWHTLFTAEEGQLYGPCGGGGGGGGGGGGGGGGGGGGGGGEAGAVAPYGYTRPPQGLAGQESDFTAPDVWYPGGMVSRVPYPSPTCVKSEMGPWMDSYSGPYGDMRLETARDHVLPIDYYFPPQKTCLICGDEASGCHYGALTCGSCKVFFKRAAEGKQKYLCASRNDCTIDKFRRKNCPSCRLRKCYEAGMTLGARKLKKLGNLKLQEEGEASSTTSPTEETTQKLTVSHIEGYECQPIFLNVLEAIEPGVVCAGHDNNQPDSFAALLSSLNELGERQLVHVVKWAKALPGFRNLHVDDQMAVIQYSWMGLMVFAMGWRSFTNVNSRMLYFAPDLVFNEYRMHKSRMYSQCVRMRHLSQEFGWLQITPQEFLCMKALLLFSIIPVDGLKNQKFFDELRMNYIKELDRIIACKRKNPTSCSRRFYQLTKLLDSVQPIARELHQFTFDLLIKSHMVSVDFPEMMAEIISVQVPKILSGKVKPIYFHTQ

[2] = Determination of absolute bioavailability (restricted PK profile, oral and intravenous); type: in vivo; details: male, Sprague-Dawley, rat, plasma, po, 10 mg/kg, absolute bioavailability (F), male Sprague Dawley rats, oral 10 mg/kg AUC(0-6 h) vs intravenous 3 mg/kg AUC(0-3 h); read-out: Bioavailability
Procedure: To screen rapidly imidazolidines derivatives based on their absolute bioavailabity, restricted pharmacokinetic profile with only fours sampling time points after oral and intravenous route is investigated in Sprague Dawley rats as follows: each test compound is dosed orally (10 mg/kg) and intravenously (3 mg/kg) to groups of 3 male Sprague Dawley rats. Oral doses are administered as solution in EtOH/PEG400/H2O (1/79/20; v/v) by esophageal gavage (2 mg/mL; 5 mL/kg) and intravenous dose is given as solution in DMSO/PEG400/H2O (1/65/34; v/v) as a bolus in the tail vein (3 mg/mL; 1 mL/kg). Before oral dosing, animals are deprived of food (water ad libitum) for at least 16 hours before the start of the study and 6 hours after administration.
Blood is collected at the retro-orbital sinus into polypropylene tubes (Li-heparinate) at +4° C. at the following sampling-times: 0.083, 0.25, 1 and 3 h after intravenous injection and 0.25, 1, 3 and 6 hours after oral dosing. Three (3) animals are sampled per time-point; each animal being sampled four times. After centrifugation at 5000 rpm for 10 min at +4° C., plasma is collected into polypropylene tubes and kept frozen at −20° C. pending assays. Plasma samples are assayed by a LC-MS/MS method with a lower limit of quantification of 1 to 10 ng/mL depending on the compound (volume of plasma: 100 μL).
A LC-MS/MS method for quantification in heparinized plasma was developed for each test compound. Sample preparation consists of a precipitation of plasma proteins with methanol and filtration by centrifugation of supernatant on Captiva deep-well 96 0.2 μm filter plates. Water was added to methanol supernatant phase prior to analysis by liquid chromatography (Pursuit 5 C18 20×2.0 mm VARIAN, 2 μL loop, gradient Water/Methanol (90/10 to 0/100) over 1.7 min) with turboionspray tandem mass spectrometry (API4000) in negative mode using multiple reaction monitoring. The method includes 8 standard and 3 quality control levels with lower limit of quantification corresponding to first standard level.
Exposures are determined using a non compartmental model (WinNonLin 2.1) and the absolute bioavailability (F) is calculated as follows: [AUC(0-6 h) oral*3 mg/kg]/AUC(0-3 h) IV 10 mg/kg] and expressed in percentage.

CN1C(=O)N(c2ccc(C#N)c(C(F)(F)F)c2)C(=O)[C@@]1(CO)c1ccccc1 [Example 10, (S)-4-[2,5-Dioxo-4-(hydroxymethyl)-3-methyl-4-phenylimidazolidin-1-yl]-2-trifluoromethylbenzonitrile]
Emax [1]: 21 to 40%
pEC50 [1]: 7.00 to 7.96
bioavailability [2]: > 90%

CN1C(=O)N(c2ccc(C#N)c(C(F)(F)F)c2)C(=O)C1(CO)c1ccc(Cl)cc1 (stereo not drawn) [Example 7, 4-[4-(4-Chlorophenyl)-2,5-dioxo-4-hydroxymethyl-3-methyl-imidazolidin-1-yl)-2-trifluoromethylbenzonitrile]
Emax [1]: 21 to 40%
pEC50 [1]: 6.30 to 7.00
bioavailability [2]: > 90%

CCN1C(=O)N(c2ccc(C#N)c(C(F)(F)F)c2)C(=O)C1(CO)c1ccccc1 (stereo not drawn) [Example 12, 4-[2,5-Dioxo-3-ethyl-4-(hydroxymethyl)-4-phenylimidazolidin-1-yl]-2-trifluoromethylbenzonitrile]
Emax [1]: 21 to 40%
pEC50 [1]: 8.00 to 11.00
bioavailability [2]: 50 to 90%

From patent US8383608B2, “Imidazolidine compounds as androgen receptor modulators” (Dart Therapeutics LLC, priority 2008, dated 2013)
